# Data taken from patent US20250210194A1, “METHODS AND SYSTEMS FOR D[…] HETEROGENEITY” (Foundation Medicine, Inc., priority 2022, published 2025).
# Test system: EGFR driver alteration-positive NSCLC patients
# Assay: Progression free survival (PFS) from start of 1st line Osimertinib in a real-world NSCLC patient cohort (Kaplan Meier)
# Format: in vivo, human
# Conditions: for median progression free survival (mPFS): 45 patients, 1st line Osimertinib
# Source text: Starting with a patient cohort of 15,035 patients, the data was filtered (for biopsy type and bait set). The data was then filtered to exclude data for patients for whom a computational tumor purity was less than or equal to 20% or for whom a computational tumor purity value was missing. The remaining patient data was divided according to whether the samples were early-stage specimens, late-stage specimens, or of ambiguous origin. For the late-stage specimens, data for patients who were first diagnosed prior to Jan. […] Finally, data was selected for N=135 1st line Osimertinib-treated, EGFR driver alteration-positive NSCLC patients for whom tumor samples were sequenced at most a year prior to start of therapy.
# The group of 135 patients were then divided into three tertiles with 45 patients each. Progression free survival (PFS) from start of 1st line Osimertinib was determined as follows: • Index state was the start of 1st line therapy. • Progression date: for patients who received a subsequent line of therapy, the event date was the earliest progression event that occurred more than 14 days after the index date, or date of death, provided that the progression event or date of death occurred before the start date of the subsequent line of therapy plus 14 days. For patients without a subsequent line of therapy, the event date was the earliest progression event that occurred more than 14 days after the index date, or the date of death. • Censor date: patients with a subsequent line of therapy were censored at their last clinic note date if it occurred between the index date and the start date of the subsequent line of therapy plus 14 days. Patients for whom the last clinic note date was not available within this window were censored at their last date of confirmed structured activity (i.e., the last available visit date within the Visit Table) within this time window. Patients without a subsequent line of therapy were censored at their last clinic note date.
structure (smiles),measurement,setting,value
C=CC(=O)Nc1cc(Nc2nccc(-c3cn(C)c4ccccc34)n2)c(OC)cc1N(C)CCN(C)C [Osimertinib],median progression free survival (mPFS),first tertile (lowest tumor heterogeneity score),16.5 months
same,median PFS,"high score group: tumor heterogeneity score >=1, 1st line Osimertinib",10.8 months
same,median PFS,"low score group: tumor heterogeneity score <1, 1st line Osimertinib",16.0 months
same,mPFS,"score category High (THS >=1), EGFR CCF category High (CCF >=0.5), N=74",11.11
same,mPFS,"score category High (THS >=1), EGFR CCF category Low (CCF <0.5), N=12",6.54 months
same,mPFS,"score category Low (THS <1), EGFR CCF category High (CCF >=0.5), N=39",16.01 months
same,median progression free survival (mPFS),second tertile (intermediate tumor heterogeneity score),10.5 months
same,median progression free survival (mPFS),third tertile (highest tumor heterogeneity score),11.9 months
same,Median progression free survival (mPFS) from start of 1st line Osimertinib,"whole cohort, N=135 EGFR driver alteration-positive NSCLC patients",12.7 months
